Data on nine compounds can be found in PubChem BioAssay (NCI).

Some test systems named below: A498 renal; COLO 205 colon; LOX IMVI melanoma; MOLT-4 leukemia; SF-268 CNS; SF-539 CNS; SN12C renal; SNB-19 CNS; SW-620 colon; T-47D breast.
What all share (assay): NCI tumour cell line growth inhibition, 48 h

Several values for one entry are separate records, joined by “and”; a condition that tells them apart may be missing. Equal values may be shown once.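 A five-concentration, 48-hour dose response in 96-well plates underlies each endpoint, interpolated linearly between surrounding concentrations. The concentration for 50% growth inhibition is given as GI50. TGI marks complete inhibition of growth.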 Bounds are passed on as bounds.

Consider `CC1=C/C(O)CC(=O)Cc2nc(co2)C(=O)N2CCC=C2C(=O)OC(C(C)C)C(C)/C=C\C(=O)NC/C=C\1` (stereo not given), for which the GI50 with A498 renal was 44.9 µM; with COLO 205 colon, 3.09 µM; with LOX IMVI melanoma it was 12.9 µM; in the experiment on MOLT-4 leukemia, 8.54 µM; in the experiment on SF-268 CNS it was 20.9 µM; in the experiment on SF-539 CNS, 10.9 µM. Also, the GI50 in the experiment on SN12C renal was 25.9 µM; with SNB-19 CNS, 18.1 µM; in the experiment with SW-620 colon, 10.5 µM; in the experiment on T-47D breast, 8.3 µM. For the same compound, the TGI in the experiment on A498 renal is > 84.1 µM and 76.3 µM; in the experiment on COLO 205 colon it was 15 µM and 38.9 µM; in the experiment on LOX IMVI melanoma, 34.7 µM and 36.1 µM; with MOLT-4 leukemia it was > 32.6 µM and 53.5 µM; in the experiment on SF-268 CNS it was 54.4 µM and 43.4 µM; in the experiment on SF-539 CNS, 46.3 µM and > 100 µM. Moreover, the TGI was > 100 µM and 29.2 µM with SN12C renal; 40.3 µM and > 100 µM with SNB-19 CNS; 35 µM and 37.7 µM in the experiment with SW-620 colon; > 48.5 µM and 36.8 µM in the experiment with T-47D breast.
`O=C1C(CO)=C[C@@H](O)[C@H]2O[C@@H]12`: the TGI was above 100 µM in the experiment with A498 renal; above 100 µM with COLO 205 colon; 65.4 µM in the experiment on LOX IMVI melanoma; above 100 µM in the experiment on MOLT-4 leukemia; above 100 µM in the experiment on SF-268 CNS; 36.3 µM in the experiment with SN12C renal. The TGI in the experiment on SW-620 colon and in the experiment on T-47D breast was above 100 µM in each case.
With `CCCC(CCC)Oc1ccc(CCCC2=C(O)c3ccccc3C(=O)C2=O)cc1`, the GI50 with A498 renal was 7.21 µM; with COLO 205 colon, 6.7 µM; in the experiment with LOX IMVI melanoma, 3.34 µM; in the experiment with MOLT-4 leukemia, 3.25 µM; in the experiment on SF-268 CNS it was 5.22 µM; in the experiment on SF-539 CNS it was 5.43 µM. The GI50 is 6.79 µM with SN12C renal, 4.61 µM with SW-620 colon and 12 µM in the experiment with T-47D breast. Moreover, the TGI in the experiment on A498 renal came out at 20.1 µM; in the experiment on COLO 205 colon it was 32.3 µM; in the experiment with LOX IMVI melanoma, 10.5 µM; in the experiment on MOLT-4 leukemia, 11.5 µM; in the experiment on SF-268 CNS, 18.9 µM; in the experiment on SF-539 CNS, 18.7 µM. Besides, the TGI stood at 22.5 µM in the experiment on SN12C renal, 17 µM with SW-620 colon and 31.6 µM in the experiment on T-47D breast.
For `CN(N=O)C(=O)Nc1ccc(C(=O)O)cc1`, the TGI in the experiment on A498 renal, in the experiment with COLO 205 colon, in the experiment on LOX IMVI melanoma, in the experiment with MOLT-4 leukemia, with SF-268 CNS and in the experiment on SF-539 CNS was above 100 µM throughout. Moreover, the TGI in the experiment with SN12C renal, in the experiment on SNB-19 CNS, with SW-620 colon and with T-47D breast was above 100 µM throughout.
On to `C=C1[C@@H](O)C[C@H]2C(C)(C)C[C@H](Cl)C[C@]2(C)[C@H]1C[C@H](O)[C@H]1CC(=O)NC1=O`, for which the GI50 was 0.0207 µM in the experiment with A498 renal; below 0.01 µM in the experiment with COLO 205 colon; below 0.0445 µM in the experiment with LOX IMVI melanoma; below 0.01 µM with MOLT-4 leukemia; 0.0179 µM with SF-268 CNS; below 0.0109 µM in the experiment with SF-539 CNS. Also, the GI50 in the experiment with SN12C renal was below 0.01 µM; in the experiment on SNB-19 CNS, below 0.01 µM; in the experiment on SW-620 colon, 0.0114 µM; in the experiment with T-47D breast, below 0.0113 µM. Further, the TGI in the experiment on A498 renal is 0.0723 µM; in the experiment with COLO 205 colon it was 0.0564 µM; in the experiment on LOX IMVI melanoma it was 0.442 µM; with SF-268 CNS it was 0.526 µM; with SF-539 CNS, 0.0597 µM; in the experiment with SN12C renal, 0.108 µM. The values for the TGI in the experiment on SNB-19 CNS, with SW-620 colon and in the experiment on T-47D breast were 0.241 µM, 4.94 µM and 0.0819 µM, respectively.
For the compound `COC(=O)c1ccc(NC(N)=NCC(C)(C)COc2ccc(C(F)(F)F)cc2)nc1`, the GI50 with A498 renal is 1.94 µM; in the experiment on COLO 205 colon it was 1.63 µM; in the experiment on SF-539 CNS, 1.71 µM; in the experiment with SN12C renal, 1.79 µM; in the experiment on T-47D breast, 1.37 µM. Also, the TGI is 5.82 µM in the experiment on A498 renal; 3.23 µM with COLO 205 colon; 3.13 µM with SF-539 CNS; 3.41 µM in the experiment with SN12C renal; 3.21 µM in the experiment on T-47D breast.
For `C=C(CN(C)Cc1ccccc1)c1ccc(C(=O)Nc2ccccc2N)cc1`, the GI50 was 7.72 µM with COLO 205 colon; 1.05 µM in the experiment on LOX IMVI melanoma; 5.98 µM with SF-268 CNS; 2.02 µM in the experiment on SF-539 CNS; 6.47 µM in the experiment with SNB-19 CNS; 6.08 µM with SW-620 colon. Moreover, the GI50 in the experiment with T-47D breast is 0.611 µM. The TGI is 17.6 µM in the experiment on COLO 205 colon; 3.69 µM with LOX IMVI melanoma; 16.8 µM with SF-268 CNS; 12.1 µM with SF-539 CNS; 43.2 µM in the experiment on SNB-19 CNS; above 50 µM with SW-620 colon. The compound further gave a TGI in the experiment with T-47D breast of 4.75 µM.
With `CC(=O)OC1CC2(O)C(CCC3(C)C(c4ccc(=O)oc4)CCC32O)C2(C)CCC(OC3OC(CO)C(O)C(O)C3O)C=C12` (stereo not given), the GI50 was 0.0339 µM with A498 renal; 0.0554 µM with COLO 205 colon; 0.0275 µM in the experiment on LOX IMVI melanoma; below 0.01 µM in the experiment on MOLT-4 leukemia; 0.0112 µM in the experiment on SF-268 CNS; 0.0144 µM in the experiment on SF-539 CNS. Also, the GI50 with SNB-19 CNS is 0.0461 µM; in the experiment on SW-620 colon, 0.0275 µM; with T-47D breast it was 0.0402 µM. The TGI with A498 renal was found to be 0.287 µM; with COLO 205 colon, 0.274 µM; with LOX IMVI melanoma it was 0.109 µM; in the experiment on MOLT-4 leukemia, 0.015 µM; in the experiment with SF-268 CNS, 0.04 µM; with SF-539 CNS, 0.0331 µM. The TGI with SNB-19 CNS stood at 0.165 µM; with SW-620 colon, 0.144 µM; in the experiment with T-47D breast, 0.837 µM.
For `O=C(NCCNC(=O)c1ccc(F)cc1)Nc1ccc(-n2cc(-c3ccncc3)c(-c3ccc(Cl)c(O)c3)n2)cc1`, the GI50 in the experiment with A498 renal is 0.336 µM; in the experiment on LOX IMVI melanoma, 0.425 µM; in the experiment on MOLT-4 leukemia, 0.356 µM; in the experiment with SF-268 CNS it was 0.427 µM; in the experiment with SF-539 CNS it was 0.253 µM; in the experiment with SN12C renal, 0.509 µM. The GI50 with SNB-19 CNS was 0.73 µM; in the experiment with SW-620 colon, 0.43 µM; in the experiment on T-47D breast, 0.884 µM. For the same compound, the TGI in the experiment with A498 renal was 2.83 µM; with LOX IMVI melanoma it was 2.49 µM; with MOLT-4 leukemia, 3.54 µM; in the experiment on SF-268 CNS, 7.33 µM; in the experiment on SF-539 CNS it was 0.957 µM; in the experiment with SN12C renal, above 100 µM. Moreover, the results for the TGI in the experiment with SNB-19 CNS, in the experiment on SW-620 colon and in the experiment with T-47D breast were above 100 µM, above 100 µM and 16 µM, respectively.
